Values joined by “and” are separate entries in the source; they are usually repeats but may differ in a detail not shown here. Equal entries are not always repeated.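 In this assay, cells in 96-well plates receive the compound at five concentrations for 48 hours. Endpoints are linearly interpolated between the surrounding concentrations. GI50 = concentration required for 50% inhibition of growth. At the TGI there is no net growth.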
Assays:
Experiment in all cases: NCI anticancer screen, dose series, 48 h
BT-549 breast = test system: BT-549 breast
UACC-62 melanoma = test system: UACC-62 melanoma
SN12C renal = test system: SN12C renal
IGROV1 ovarian = test system: IGROV1 ovarian
SNB-19 CNS = test system: SNB-19 CNS
MDA-MB-231 breast = test system: MDA-MB-231 breast
OVCAR-4 ovarian = test system: OVCAR-4 ovarian
MOLT-4 leukemia = test system: MOLT-4 leukemia
SF-268 CNS = test system: SF-268 CNS
T-47D breast = test system: T-47D breast
K-562 leukemia = test system: K-562 leukemia
DU-145 prostate = test system: DU-145 prostate
CAKI-1 renal = test system: CAKI-1 renal
HT29 colon = test system: HT29 colon
SF-539 CNS = test system: SF-539 CNS
UO-31 renal = test system: UO-31 renal
HL-60(TB) leukemia = test system: HL-60(TB) leukemia
U251 CNS = test system: U251 CNS
SK-MEL-28 melanoma = test system: SK-MEL-28 melanoma
786-0 renal = test system: 786-0 renal
OVCAR-3 ovarian = test system: OVCAR-3 ovarian
NCI-H23 lung = test system: NCI-H23 lung
M14 melanoma = test system: M14 melanoma
SK-OV-3 ovarian = test system: SK-OV-3 ovarian
HCT-15 colon = test system: HCT-15 colon
NCI-H522 lung = test system: NCI-H522 lung
SNB-75 CNS = test system: SNB-75 CNS
NCI/ADR-RES ovarian = test system: NCI/ADR-RES ovarian
HOP-92 NSCLC = test system: HOP-92 NSCLC
A498 renal = test system: A498 renal
SR leukemia = test system: SR leukemia
HS 578T breast = test system: HS 578T breast
HCT-116 colon = test system: HCT-116 colon
TK-10 renal = test system: TK-10 renal
NCI-H460 lung = test system: NCI-H460 lung
MCF7 breast = test system: MCF7 breast
HOP-62 NSCLC = test system: HOP-62 NSCLC
CCRF-CEM leukemia = test system: CCRF-CEM leukemia
SK-MEL-5 melanoma = test system: SK-MEL-5 melanoma
EKVX NSCLC = test system: EKVX NSCLC
RXF 393 renal = test system: RXF 393 renal
SK-MEL-2 melanoma = test system: SK-MEL-2 melanoma
MALME-3M melanoma = test system: MALME-3M melanoma
RPMI-8226 leukemia = test system: RPMI-8226 leukemia
NCI-H226 lung = test system: NCI-H226 lung
KM12 colon = test system: KM12 colon
ACHN renal = test system: ACHN renal
UACC-257 melanoma = test system: UACC-257 melanoma
COLO 205 colon = test system: COLO 205 colon
HCC-2998 colon = test system: HCC-2998 colon
OVCAR-8 ovarian = test system: OVCAR-8 ovarian
SF-295 CNS = test system: SF-295 CNS
OVCAR-5 ovarian = test system: OVCAR-5 ovarian
MDA-MB-435 = test system: MDA-MB-435
SW-620 colon = test system: SW-620 colon
PC-3 prostate = test system: PC-3 prostate
A549 NSCLC = test system: A549 NSCLC
LOX IMVI melanoma = test system: LOX IMVI melanoma

## CC1(C)CC(=O)c2c(ccc(C(=O)C[C@H](N)CO)c2N)O1
BT-549 breast
  GI50: 6.44 µM and 2.87 µM
  TGI: 17.5 µM and 25.4 µM
UACC-62 melanoma
  TGI: 10.5 µM and 10.6 µM
SN12C renal
  TGI: 17.5 µM and > 33.3 µM
IGROV1 ovarian
  GI50: 3.09 µM
  TGI: 17.5 µM
SNB-19 CNS
  GI50: 5.07 µM and 1.41 µM
  TGI: 17.5 µM and > 33.3 µM
MDA-MB-231 breast
  GI50: > 17.5 µM
  TGI: > 17.5 µM
OVCAR-4 ovarian
  GI50: > 33.3 µM
  TGI: > 33.3 µM
MOLT-4 leukemia
  GI50: 1610 nM and 177 nM
  TGI: 17.5 µM and 26.7 µM
SF-268 CNS
  GI50: 5.03 µM and 0.594 µM
  TGI: 17.5 µM and > 33.3 µM
T-47D breast
  GI50: 5.94 µM and 3.52 µM
  TGI: 17.5 µM and > 33.3 µM
K-562 leukemia
  GI50: 2270 nM and 251 nM
  TGI: 17.5 µM and > 33.3 µM
DU-145 prostate
  TGI: 17.5 µM and > 33.3 µM
CAKI-1 renal
  GI50: 3.27 µM and 0.447 µM
  TGI: 17.5 µM and 6.03 µM
HT29 colon
  TGI: 17.5 µM and > 33.3 µM
SF-539 CNS
  TGI: 17.5 µM and 7.43 µM
UO-31 renal
  GI50: 1730 nM and 409 nM
  TGI: 17.5 µM and > 33.3 µM
HL-60(TB) leukemia
  GI50: 8.45 µM and 6.34 µM
  TGI: 17.5 µM and > 33.3 µM
U251 CNS
  GI50: 1470 nM and 247 nM
  TGI: 17.5 µM and > 33.3 µM
SK-MEL-28 melanoma
  TGI: 17.5 µM and > 33.3 µM
786-0 renal
  GI50: > 17.5 µM and 5.1 µM
  TGI: > 33.3 µM
OVCAR-3 ovarian
  TGI: 17.5 µM and > 33.3 µM
NCI-H23 lung
  GI50: 6.42 µM and 0.733 µM
  TGI: 17.5 µM and > 33.3 µM
M14 melanoma
  TGI: 17.5 µM and 11.3 µM
SK-OV-3 ovarian
  GI50: > 17.5 µM and 12.3 µM
  TGI: > 33.3 µM
HCT-15 colon
  GI50: 768 nM and 114 nM
  TGI: 17.5 µM and 9.09 µM
NCI-H522 lung
  GI50: 2.57 µM and 4.58 µM
  TGI: 17.5 µM
SNB-75 CNS
  GI50: > 17.5 µM and 3.1 µM
  TGI: > 33.3 µM
NCI/ADR-RES ovarian
  GI50: > 17.5 µM and 7.51 µM
  TGI: > 33.3 µM
HOP-92 NSCLC
  GI50: 7.04 µM
  TGI: 17.5 µM
A498 renal
  GI50: 2.86 µM and 6.73 µM
  TGI: 17.5 µM and > 33.3 µM
SR leukemia
  GI50: 612 nM and 75.2 nM
HS 578T breast
  GI50: > 33.3 µM
  TGI: > 33.3 µM
HCT-116 colon
  GI50: 1360 nM and 2010 nM
  TGI: 17.5 µM and > 33.3 µM
TK-10 renal
  GI50: > 17.5 µM and 5.99 µM
  TGI: > 17.5 µM and 28.8 µM
NCI-H460 lung
  GI50: 890 nM and 129 nM
  TGI: 17.5 µM and > 33.3 µM
MCF7 breast
  TGI: 17.5 µM and > 33.3 µM
HOP-62 NSCLC
  GI50: 2390 nM
  TGI: 17.5 µM and > 33.3 µM
CCRF-CEM leukemia
  TGI: 17.5 µM and > 33.3 µM
SK-MEL-5 melanoma
  GI50: 2.87 µM and 5.08 µM
  TGI: 17.5 µM and > 33.3 µM
EKVX NSCLC
  GI50: > 33.3 µM
  TGI: > 33.3 µM
RXF 393 renal
  GI50: 4.45 µM and 5.14 µM
  TGI: 17.5 µM and > 33.3 µM
SK-MEL-2 melanoma
  GI50: 12.5 µM and 5.2 µM
  TGI: 17.5 µM and > 33.3 µM
MALME-3M melanoma
  GI50: > 33.3 µM
  TGI: > 33.3 µM
RPMI-8226 leukemia
  GI50: 4.62 µM
  TGI: 17.5 µM
NCI-H226 lung
  TGI: 17.5 µM and 23.7 µM
KM12 colon
  GI50: 1230 nM and 189 nM
  TGI: 17.5 µM and > 33.3 µM
ACHN renal
  GI50: 4.49 µM and 0.962 µM
  TGI: 17.5 µM and > 33.3 µM
UACC-257 melanoma
  GI50: 20.3 µM
  TGI: > 33.3 µM
COLO 205 colon
  GI50: 4.92 µM and 2.07 µM
  TGI: 17.5 µM and > 33.3 µM
HCC-2998 colon
  TGI: 17.5 µM and 12 µM
OVCAR-8 ovarian
  GI50: 5.68 µM and 2.17 µM
  TGI: 17.5 µM and > 33.3 µM
SF-295 CNS
  GI50: 5.66 µM and 3.65 µM
  TGI: 17.5 µM and > 33.3 µM
OVCAR-5 ovarian
  GI50: > 33.3 µM
  TGI: > 33.3 µM
MDA-MB-435
  GI50: 15.3 µM and 4.47 µM
  TGI: 17.5 µM and > 33.3 µM
SW-620 colon
  GI50: 647 nM and 117 nM
  TGI: 17.5 µM and > 33.3 µM
PC-3 prostate
  GI50: 10.6 µM and 5.7 µM
  TGI: 17.5 µM and > 33.3 µM
A549 NSCLC
  GI50: 7 µM and 7.1 µM
  TGI: 17.5 µM and > 33.3 µM

## Nc1c(C(=O)c2cccc(CCC3(O)CCCC3)c2)cnn1-c1ccc(F)cc1
BT-549 breast
  GI50: 9.75 µM
  TGI: > 25 µM
UACC-62 melanoma
  GI50: 12.5 µM
  TGI: > 25 µM
SN12C renal
  GI50: 16.2 µM
  TGI: > 25 µM
IGROV1 ovarian
  GI50: > 25 µM
  TGI: > 25 µM
SNB-19 CNS
  GI50: 15.3 µM
  TGI: > 25 µM
MDA-MB-231 breast
  GI50: > 20.9 µM
  TGI: > 25 µM
LOX IMVI melanoma
  GI50: > 25 µM
  TGI: > 25 µM
OVCAR-4 ovarian
  GI50: 8.71 µM
  TGI: > 25 µM
MOLT-4 leukemia
  GI50: 10200 nM
  TGI: > 25 µM
SF-268 CNS
  GI50: > 18.5 µM
  TGI: > 25 µM
T-47D breast
  GI50: 6.52 µM
  TGI: > 25 µM
K-562 leukemia
  GI50: 10100 nM
  TGI: > 25 µM
DU-145 prostate
  GI50: > 21.1 µM
  TGI: > 25 µM
CAKI-1 renal
  GI50: > 25 µM
  TGI: > 25 µM
HT29 colon
  GI50: 18.2 µM
  TGI: > 25 µM
SF-539 CNS
  GI50: 18.2 µM
  TGI: > 25 µM
UO-31 renal
  GI50: 8210 nM
  TGI: > 25 µM
HL-60(TB) leukemia
  GI50: 16.2 µM
  TGI: > 25 µM
U251 CNS
  GI50: 14200 nM
  TGI: > 25 µM
SK-MEL-28 melanoma
  GI50: > 22.9 µM
  TGI: > 25 µM
786-0 renal
  GI50: > 20.4 µM
  TGI: > 25 µM
OVCAR-3 ovarian
  GI50: > 18 µM
  TGI: > 25 µM
NCI-H23 lung
  GI50: 14.6 µM
  TGI: > 25 µM
M14 melanoma
  GI50: 14.9 µM
  TGI: > 25 µM
SK-OV-3 ovarian
  GI50: > 25 µM
  TGI: > 25 µM
HCT-15 colon
  GI50: 18700 nM
  TGI: > 25 µM
NCI-H522 lung
  GI50: > 19.4 µM
  TGI: > 25 µM
SNB-75 CNS
  GI50: 8.47 µM
  TGI: > 25 µM
NCI/ADR-RES ovarian
  GI50: 7.68 µM
  TGI: > 25 µM
HOP-92 NSCLC
  GI50: 2.73 µM
  TGI: 20.2 µM
A498 renal
  GI50: 3.62 µM
  TGI: > 25 µM
SR leukemia
  GI50: 13600 nM
  TGI: > 25 µM
HS 578T breast
  GI50: 12.7 µM
  TGI: > 25 µM
HCT-116 colon
  GI50: 18500 nM
  TGI: > 25 µM
TK-10 renal
  GI50: 18.8 µM
  TGI: > 25 µM
NCI-H460 lung
  GI50: 20500 nM
  TGI: > 25 µM
MCF7 breast
  GI50: 9.65 µM
  TGI: > 25 µM
HOP-62 NSCLC
  GI50: > 25000 nM
  TGI: > 25 µM
CCRF-CEM leukemia
  GI50: 18.8 µM
  TGI: > 25 µM
SK-MEL-5 melanoma
  GI50: 4.78 µM
  TGI: 13.3 µM
RXF 393 renal
  GI50: 16.9 µM
  TGI: > 25 µM
SK-MEL-2 melanoma
  GI50: > 25 µM
  TGI: > 25 µM
MALME-3M melanoma
  GI50: 7.88 µM
  TGI: > 25 µM
RPMI-8226 leukemia
  GI50: 9.23 µM
  TGI: > 25 µM
NCI-H226 lung
  GI50: 8.04 µM
  TGI: > 25 µM
KM12 colon
  GI50: 17100 nM
  TGI: > 25 µM
ACHN renal
  GI50: > 21 µM
  TGI: > 25 µM
UACC-257 melanoma
  GI50: 10 µM
  TGI: > 25 µM
COLO 205 colon
  GI50: 16.6 µM
  TGI: > 25 µM
HCC-2998 colon
  GI50: > 25 µM
  TGI: > 25 µM
OVCAR-8 ovarian
  GI50: 11.4 µM
  TGI: > 25 µM
SF-295 CNS
  GI50: 9.4 µM
  TGI: > 25 µM
OVCAR-5 ovarian
  GI50: > 25 µM
  TGI: > 25 µM
MDA-MB-435
  GI50: 8.98 µM
  TGI: > 25 µM
SW-620 colon
  GI50: > 20700 nM
  TGI: > 25 µM
PC-3 prostate
  GI50: 8.98 µM
  TGI: > 25 µM
A549 NSCLC
  GI50: 12.6 µM
  TGI: > 25 µM
